Consider 9 compounds from patent US8669291B2, “Phenyl substituted cycloalkylamines as monoamine reuptake inhibitors” (Sunovion Pharmaceuticals Inc., priority 2007, dated 2014).

Like-named read-outs stand apart in the source and are kept apart here. Some results are limits rather than exact numbers.

For data set [1], the target named is T1, human norepinephrine (NE) reuptake transporter (Homo sapiens, UniProt P23975).
T1 construct: expressed in transfected cells
In words: functional uptake assay, human NE reuptake transporter. The data set is classed as cell-based. The following applies: read-out: NE IC50. Here is the method:
(§1) Compounds were tested for their inhibition of functional uptake of serotonin (5-HT), norepinephrine (NE), and dopamine (DA), in synaptosomes prepared from rat whole brain, hypothalamus, or corpus striatum, respectively, and/or using recombinant human transporters.

Data set [2] concerns the target T2, human serotonin (5-HT) reuptake transporter (Homo sapiens, UniProt P31645).
T2 construct: expressed in transfected cells
As to the kind of experiment: functional uptake assay, human 5-HT reuptake transporter. It counts as cell-based. As for the experimental part:
as §1

In data set [3] the target is T3, human dopamine (DA) reuptake transporter (Homo sapiens, UniProt Q01959).
T3 construct: expressed in transfected cells
In words: functional uptake assay, human DA reuptake transporter. It counts as cell-based. As for the experimental part: as §1

For data set [4] the following is noted: in vivo; cited from earlier work.
In a further data set the target is serotonin uptake sites (Homo sapiens, UniProt P31645). The conditions noted are these: cited from earlier work.
A short description of data set [5]: human metabolic stability (HLM t1/2). It counts as in vitro ADME. The conditions noted are these: human liver microsomes. From the text: 4b. In Vitro PK Data (Human Metabolic Stability, Inhibition of CYP450 Enzymes, Inhibition of HERG Current)
Background: Microsomes from liver hold many membrane-bound enzymes, among them those of drug oxidation.

Where [6] appears, read: Example 6 summary of selected in vitro data.
Setting [7] is: Example 6 summary of selected in vitro data, read-out: 5-HT IC50.
Setting [8] is: Example 6 summary of selected in vitro data, read-out: DA IC50.
Setting [9] is: Example 4a, human reuptake transporter.
Setting [10] is: Example 4a, human reuptake transporter, read-out: 5-HT IC50.
[11] abbreviates: Example 4a, human reuptake transporter, read-out: DA IC50.

T2 sequence (P31645 whole entry): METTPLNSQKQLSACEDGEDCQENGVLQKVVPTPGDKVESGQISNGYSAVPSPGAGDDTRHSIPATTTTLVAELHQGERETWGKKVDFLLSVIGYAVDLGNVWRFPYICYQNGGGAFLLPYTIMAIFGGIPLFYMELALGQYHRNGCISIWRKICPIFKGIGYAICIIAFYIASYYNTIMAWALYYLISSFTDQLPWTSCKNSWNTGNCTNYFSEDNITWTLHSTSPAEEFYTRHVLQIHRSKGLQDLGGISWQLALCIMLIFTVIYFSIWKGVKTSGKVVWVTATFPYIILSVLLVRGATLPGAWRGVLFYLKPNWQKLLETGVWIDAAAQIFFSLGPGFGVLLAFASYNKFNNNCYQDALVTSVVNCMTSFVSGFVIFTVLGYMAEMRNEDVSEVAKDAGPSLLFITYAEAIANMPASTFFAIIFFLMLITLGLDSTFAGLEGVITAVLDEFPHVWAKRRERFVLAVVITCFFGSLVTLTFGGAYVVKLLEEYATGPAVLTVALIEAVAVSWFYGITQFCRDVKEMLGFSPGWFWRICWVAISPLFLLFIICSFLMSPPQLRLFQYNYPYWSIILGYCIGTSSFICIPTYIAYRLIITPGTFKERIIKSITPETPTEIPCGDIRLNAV
T1 sequence (P23975 whole entry): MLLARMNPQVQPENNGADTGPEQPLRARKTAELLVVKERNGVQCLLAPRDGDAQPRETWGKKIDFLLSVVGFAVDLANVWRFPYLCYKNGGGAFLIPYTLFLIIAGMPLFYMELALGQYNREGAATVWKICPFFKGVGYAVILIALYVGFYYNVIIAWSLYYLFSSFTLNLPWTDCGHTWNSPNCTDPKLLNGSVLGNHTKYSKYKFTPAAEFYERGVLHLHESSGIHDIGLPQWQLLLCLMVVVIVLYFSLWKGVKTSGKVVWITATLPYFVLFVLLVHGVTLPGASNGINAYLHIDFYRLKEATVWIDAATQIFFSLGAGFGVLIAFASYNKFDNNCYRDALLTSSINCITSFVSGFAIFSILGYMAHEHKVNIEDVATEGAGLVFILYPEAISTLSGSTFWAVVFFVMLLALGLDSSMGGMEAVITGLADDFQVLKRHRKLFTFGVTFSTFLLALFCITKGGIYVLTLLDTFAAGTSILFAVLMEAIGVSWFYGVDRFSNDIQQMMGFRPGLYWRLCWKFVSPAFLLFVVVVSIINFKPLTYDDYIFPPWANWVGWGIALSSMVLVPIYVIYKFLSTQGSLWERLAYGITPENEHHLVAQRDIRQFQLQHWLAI
T3 sequence (Q01959 whole entry): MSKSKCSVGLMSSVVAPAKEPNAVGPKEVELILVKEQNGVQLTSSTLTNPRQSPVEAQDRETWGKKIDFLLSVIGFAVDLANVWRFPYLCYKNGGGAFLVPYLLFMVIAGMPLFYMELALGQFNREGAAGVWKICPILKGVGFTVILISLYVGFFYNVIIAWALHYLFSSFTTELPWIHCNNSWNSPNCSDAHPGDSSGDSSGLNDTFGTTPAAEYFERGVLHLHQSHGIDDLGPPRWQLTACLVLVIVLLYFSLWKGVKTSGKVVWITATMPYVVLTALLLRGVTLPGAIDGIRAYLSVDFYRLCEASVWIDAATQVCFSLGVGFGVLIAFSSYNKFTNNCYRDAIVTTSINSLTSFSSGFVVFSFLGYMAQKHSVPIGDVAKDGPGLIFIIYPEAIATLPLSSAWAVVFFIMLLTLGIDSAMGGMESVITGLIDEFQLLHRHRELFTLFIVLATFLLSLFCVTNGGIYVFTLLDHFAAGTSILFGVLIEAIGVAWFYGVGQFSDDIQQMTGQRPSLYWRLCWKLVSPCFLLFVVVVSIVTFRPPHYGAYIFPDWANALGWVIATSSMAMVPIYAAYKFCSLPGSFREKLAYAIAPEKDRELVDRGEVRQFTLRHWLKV
Chain of serotonin uptake sites (P31645 whole entry): as the sequence (P31645 whole entry) above

The term IC50 denotes the concentration at which inhibition is half-maximal. As to `NC[C@]1(F)CCCC[C@@]1(O)c1ccc(Cl)c(Cl)c1` [Compound 21 A/B], the IC50 in data set [1] (setting [6]) was over 5000 nM; in data set [2] (read-out: 5-HT IC50 nM, Example 6 summary of selected in vitro data), 1 to 2000 nM; in data set [3] (read-out: DA IC50 nM, Example 6 summary of selected in vitro data) it was 10 to 200 nM.
`CN(C)C[C@]1(C)CCCC[C@@]1(O)c1ccc(Cl)c(Cl)c1` [Compound 17 A/B]: the half-maximal inhibitory concentration (IC50) in data set [1] (setting [6]) is over 5000 nM; in data set [2] (setting [7]) it was 2000 to 7000 nM; in data set [3] (setting [8]), 201 to 1000 nM.
Take `NC[C@@H]1CCCC[C@@]1(O)c1ccc(Cl)c(Cl)c1` (relative stereo) [Compound 9, cis-2-(aminomethyl)-1-(3,4-dichlorophenyl)cyclohexanol]: the IC50 is 1000 to 5000 nM in data set [1] (setting [9]); 1000 to 5000 nM in data set [1] (setting [6]); over 10000 nM in data set [2] (setting [10]); over 10000 nM in data set [2] (setting [7]); 10 to 200 nM in data set [3] (setting [11]); 10 to 200 nM in data set [3] (setting [8]).
`CNC[C@]1(C)CCCC[C@@]1(O)c1ccc(Cl)c(Cl)c1` [Compound 16 A/B]: the results for the IC50 in data set [1] (setting [6]), in data set [2] (setting [7]) and in data set [3] (setting [8]) were over 5000 nM, 1 to 2000 nM and 10 to 200 nM, respectively.
Turning to `CN(C)C[C@]1(F)CCCC[C@@]1(O)c1ccc(Cl)c(Cl)c1` [Compound 23 A/B], the results for the IC50 in data set [1] (setting [6]), in data set [2] (setting [7]) and in data set [3] (setting [8]) were over 5000 nM, 2000 to 7000 nM and 201 to 1000 nM, respectively.
On to `NCC1CCCCC1(O)c1ccc(Cl)c(Cl)c1` (single isomer, unassigned) [Compound 8, cis-2-(aminomethyl)-1-(3,4-dichlorophenyl)cyclohexanol], for which the IC50 in data set [1] (setting [9]) was over 5000 nM; in data set [1] (setting [6]), over 5000 nM; in data set [2] (setting [10]) it was 7000 to 10000 nM; in data set [2] (setting [7]), 7000 to 10000 nM; in data set [3] (setting [11]), 201 to 1000 nM; in data set [3] (setting [8]) it was 201 to 1000 nM.
On to `C[C@@]1(CN)CCCC[C@@]1(O)c1ccc(Cl)c(Cl)c1` [Compound 15 A/B], for which the IC50 is over 5000 nM in data set [1] (setting [6]), 2000 to 7000 nM in data set [2] (setting [7]) and 201 to 1000 nM in data set [3] (setting [8]).
Turning to `Clc1ccc([C@@]23CNC[C@@H]2C3)cc1Cl` (single isomer, unassigned) [DOV 21,947, (+)-1-(3,4-dichlorophenyl)-3-azabicyclo[3.1.0]hexane], the “immobility in the tail suspension test” value in data set [4] is listed as “dose-dependent reduction in immobility”. Also, the “affinity for the serotonin uptake sites versus the racemic compound” value at serotonin uptake sites is listed as “significantly greater affinity”.
In general, half-life refers to the time needed for the level to fall by half in the phase considered. Read a high half-life as slow loss. Consider `CN(C)C[C@H]1CCCC[C@]1(O)c1ccc(Cl)c(Cl)c1` (single isomer, unassigned) [Compound 1, cis-1-(3,4-dichlorophenyl)-2-((dimethylamino)methyl)cyclohexanol], for which the IC50 in data set [1] (setting [9]) fell in the range of 201 to 1000 nM; in data set [1] (setting [6]), 201 to 1000 nM; in data set [2] (setting [10]), 1 to 2000 nM; in data set [2] (setting [7]), 1 to 2000 nM; in data set [3] (setting [11]), 201 to 1000 nM; in data set [3] (setting [8]), 201 to 1000 nM. The same compound gave a half-life in data set [5] of 0.417 to 2.92 h.
